From ChEMBL document CHEMBL3045018, “Comparative QSTR study of saturated alcohols based on topological, constitutional, geometrical, and getaway descriptors” (Med Chem Res, 2009)

Test system: Tetrahymena pyriformis
Assay: Toxicity in Tetrahymena pyriformis
Settings: in vivo

CC(O)CCl (stereo not given)
pGI50: 1.2446

OCCCl [2-CHLOROETHANOL]
pGI50: 1.5343

CCCC(C)O (stereo not given) [2-PENTANOL]
pGI50: 1.1596

OCCCCl [3-Chloropropanol]
pGI50: 1.1622

CC(C)CCO [3-METHYLBUTANOL]
pGI50: 1.0359

CCC(O)CC [3-PENTANOL]
pGI50: 1.2437

CCO [ALCOHOL]
pGI50: 1.9912

CCC(C)(C)O [AMYLENE HYDRATE]
pGI50: 1.1729

CCC(C)O (stereo not given) [BUTANOL]
pGI50: 1.542

CCCCO [BUTYL ALCOHOL]
pGI50: 1.4306

CC(C)CO [ISOBUTANOL]
pGI50: 1.3724

CC(C)O [ISOPROPYL ALCOHOL]
pGI50: 1.8819

CO [METHYL ALCOHOL]
pGI50: 2.6656

CCCO [PROPANOL]
pGI50: 1.7464

CC(C)(C)O [TERT-BUTANOL]
pGI50: 1.7911
